Experimental data taken from paper PMC5514153, “Targeting PTPRZ inhibits stem cell-like properties and tumorigenicity in glioblastoma cells” (Scientific Reports, 2017).

Assays:
hPTPRG = target: T1, hPTPRG (Homo sapiens, UniProt P23470); experiment: In vitro PTPase assay (DiFMUP), PTPRG; format: biochemical; conditions: 60-min preincubation
T1 construct: The ICRs of PTPRG, PTPRS, and PTPRB and the catalytic domains of PTPN1 and PTPN6; GST (N); made in house; host or cells: Escherichia coli BL21
Description: Figure 4 NAZ2329, an allosteric inhibitor of R5 RPTP subfamily members. (A) Structure of NAZ2329. (B) Effect of preincubation of NAZ2329 on its inhibitory activity against PTPRZ. Recombinant human PTPRZ1 enzyme (the whole intracellular region) was premixed with NAZ2329 for the indicated times and followed by addition of a fluorogenic DiFMUP (non-specific PTP substrate, 6,8-difluoro-4-methylumbiliferyl phosphate) to measure PTP inhibitory activity. (C) Time dependence. The PTPRZ1 enzyme was added to the inhibitor–substrate mixture, and the inhibitory activity was determined at each time point relative to the vehicle control. (D) Reversibility of inhibition. […] The mixture was then 20-fold diluted, and recovered PTP activity was expressed as the relative activity compared with the vehicle-treated enzyme. […] PTPRZ1 enzymes were preincubated with NAZ2329 for 60 min, and the PTP activity was measured using DiFMUP. […]
Recombinant proteins corresponding to the entire intracellular regions (ICRs) of PTPRZ1, PTPRA, and PTPRM were expressed using a baculovirus-silkworm expression system, and purified as described. The ICRs of PTPRG, PTPRS, and PTPRB and the catalytic domains of PTPN1 and PTPN6 were expressed as glutathione-S-transferase (GST) fusion proteins from each pGEX plasmid in Escherichia coli strain BL21 (ref. [6]). […]

[1] = test system: paxillin at Tyr-118 in C6 cells; experiment: Paxillin Tyr-118 phosphorylation in C6 cells (Western blot); format: cell-based, rat; conditions: 25 µM
Description: Figure 7 Cellular effects of NAZ2329 on the malignant phenotypes of C6 cells. (A) Phosphorylation of paxillin at Tyr-118. C6 cells were incubated with NAZ2329 for the indicated periods. Immunoprecipitated paxillin was analyzed by Western blotting using anti-pY118-paxillin and anti-paxillin. Blots are representative of five independent cultures. […] (B) Cell proliferation assay. C6 cells were incubated for 48 h with NAZ2329 in normal medium containing 2% FBS. […] (C) Boyden chamber assay. Cells were allowed to migrate for 3 h. DAPI-stained nuclei are shown before (total) and after (migrated) the removal of cells remaining in the top chamber. Scale bars, 100 µm. […] (D,E) Sphere formation (D) and SOX2 expression (E). C6 cells were cultured in CSC medium for 7 days with indicated concentrations of NAZ2329. Images are representative of five independent cultures. Scale bars, 100 µm. […] (F) Self-renewal of C6 spheres. […]
After precleaning the extracts with Protein G Sepharose (#17-0618-02, GE Healthcare), samples were subjected to immunoprecipitation with Protein G Sepharose coated with a mouse anti-paxillin antibody. […] The binding of these antibodies was detected with Luminata Forte Western HRP substrate (Millipore) and imaged with a chemiluminescent image analyzer system (EZ-Caputure MG, Atto Corp).

T1 sequence (P23470 763-1445 limits assumed): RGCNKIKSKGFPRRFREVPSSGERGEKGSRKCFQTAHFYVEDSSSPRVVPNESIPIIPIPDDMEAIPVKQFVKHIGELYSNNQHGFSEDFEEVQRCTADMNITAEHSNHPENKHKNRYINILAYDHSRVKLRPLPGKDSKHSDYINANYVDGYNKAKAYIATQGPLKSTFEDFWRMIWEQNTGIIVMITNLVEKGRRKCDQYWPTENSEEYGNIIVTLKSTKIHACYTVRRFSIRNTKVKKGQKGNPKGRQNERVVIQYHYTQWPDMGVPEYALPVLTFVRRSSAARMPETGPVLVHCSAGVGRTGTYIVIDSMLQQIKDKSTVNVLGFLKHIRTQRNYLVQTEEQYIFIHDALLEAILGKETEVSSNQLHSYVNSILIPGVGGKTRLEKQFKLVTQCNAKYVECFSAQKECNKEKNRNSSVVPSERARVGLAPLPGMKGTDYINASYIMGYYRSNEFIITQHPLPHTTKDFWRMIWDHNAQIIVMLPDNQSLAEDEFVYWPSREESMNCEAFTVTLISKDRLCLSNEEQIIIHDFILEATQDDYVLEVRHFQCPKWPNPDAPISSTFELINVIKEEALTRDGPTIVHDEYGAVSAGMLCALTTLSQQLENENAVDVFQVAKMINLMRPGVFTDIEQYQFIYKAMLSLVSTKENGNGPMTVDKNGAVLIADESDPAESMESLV

- IC50 (hPTPRG): 4.8 µM
SMILES: CCOc1ccc(C(F)(F)F)cc1CSc1ccsc1C(=O)NS(=O)(=O)c1ccccc1 [NAZ2329]
- phosphorylation level of paxillin at Tyr-118 [1]: significantly enhanced the phosphorylation level
